Data on 14 compounds can be found in ChEMBL document CHEMBL1201862, “PubChem BioAssay data set” (2004).

Activity calls are given as the source filed them.

Assay [1] deals with HEK293. The assay is described as follows: cells. Format: functional, cell-based. The following applies: Homo sapiens.
Assay [2] addresses T1, Nuclear receptor subfamily 0 group B member 1 (Homo sapiens, UniProt P51843).
T1 sequence (P51843 whole entry): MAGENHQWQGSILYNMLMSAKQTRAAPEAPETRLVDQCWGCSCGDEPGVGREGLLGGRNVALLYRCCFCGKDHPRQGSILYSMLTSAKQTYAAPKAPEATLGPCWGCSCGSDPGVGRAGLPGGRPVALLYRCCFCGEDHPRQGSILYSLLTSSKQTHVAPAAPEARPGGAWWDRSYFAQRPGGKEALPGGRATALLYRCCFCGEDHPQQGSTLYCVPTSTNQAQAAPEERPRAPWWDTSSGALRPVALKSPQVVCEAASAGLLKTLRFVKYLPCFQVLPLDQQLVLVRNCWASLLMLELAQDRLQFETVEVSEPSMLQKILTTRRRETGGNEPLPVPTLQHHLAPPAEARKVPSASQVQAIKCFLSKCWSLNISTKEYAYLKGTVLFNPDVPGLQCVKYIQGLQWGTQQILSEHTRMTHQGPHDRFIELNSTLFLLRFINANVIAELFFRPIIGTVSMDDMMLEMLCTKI
As to the kind of experiment: Luminescence-based cell-based high throughput dose response assay for inhibitors of the orphan nuclear receptor subfamily 0, group B, member 1 (DAX1; NR0B1). [Related pubchem assays (depositor defined):AID504766, AID504790]. Format: functional.

The target in assay [3] is G-protein coupled receptor 55 (Homo sapiens, UniProt Q9Y2T6). The assay is described as follows: GPR55 antagonists blocking LPI-driven arrestin recruitment, primary screen, imaging, U2OS, beta-arrestin-GFP, LPI agonist (AID 2013).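 Also: antagonist potency measured as reduced agonist-driven arrestin aggregation.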 The class given is functional. (In general: Arrestin recruitment assays detect the binding of arrestin to an activated receptor.)
The target of assay [4] is Voltage-gated inwardly rectifying potassium channel KCNH2 (Homo sapiens, UniProt Q12809). The conditions noted are these: Potency.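 Also: confirmatory quantitative high-throughput screen measuring inhibition of hERG channel activity.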
The target in assay [5] is Hexokinase HKDC1 (Homo sapiens, UniProt Q2TB90). As to the kind of experiment: SAR analysis of small molecule inhibitors of hexokinase domain containing I (HKDC1). [Related pubchem assays (depositor defined):AID493160, AID493190]. The class given is functional.
The target in assay [6] is Hexokinase-1 (Homo sapiens, UniProt P19367). The assay is described as follows: SAR analysis of small molecule inhibitors of hexokinase domain containing I (HKDC1) in the hexokinase 1 selectivity assay. [Related pubchem assays (depositor defined):AID493160, AID493190]. The class given is functional.
For assay [7], the target named is T2, Type-1 angiotensin II receptor (Homo sapiens, UniProt P30556).
T2 sequence (P30556 whole entry): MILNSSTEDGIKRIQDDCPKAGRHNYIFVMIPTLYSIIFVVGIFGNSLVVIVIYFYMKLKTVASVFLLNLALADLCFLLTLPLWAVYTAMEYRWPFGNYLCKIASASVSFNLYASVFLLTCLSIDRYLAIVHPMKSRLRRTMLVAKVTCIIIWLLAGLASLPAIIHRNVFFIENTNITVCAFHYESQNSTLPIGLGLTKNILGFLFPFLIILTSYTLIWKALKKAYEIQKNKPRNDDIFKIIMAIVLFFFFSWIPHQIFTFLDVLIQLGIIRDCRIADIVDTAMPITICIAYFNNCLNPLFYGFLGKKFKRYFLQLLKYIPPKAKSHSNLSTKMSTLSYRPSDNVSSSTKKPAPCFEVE
As to the kind of experiment: AT1 receptor agonists, dose response, selectivity assay for APJ receptor agonist project, cell-based, uHTS hits (AID 488865).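 Also: beta-arrestin recruitment to AT1 measured by enzyme fragment complementation luminescence.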 The class given is functional.

Assay [8] concerns HeLa. As to the kind of experiment: HeLa cell cytotoxicity, dose response, cytotoxicity control for MITF activator project, CellTiter-Glo luminescence, cherry-pick samples (AID 540259). The class given is functional, cell-based. The following applies: Homo sapiens. In general terms: ATP-based viability assays read luminescence as a measure of living cells.
For assay [9], the target named is T3, Coagulation factor XII (Homo sapiens, UniProt P00748).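 Also: activated factor XIIa alpha cleaving a fluorogenic AMC peptide substrate; inhibitor potency from loss of enzyme activity.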
T3 sequence (P00748 whole entry): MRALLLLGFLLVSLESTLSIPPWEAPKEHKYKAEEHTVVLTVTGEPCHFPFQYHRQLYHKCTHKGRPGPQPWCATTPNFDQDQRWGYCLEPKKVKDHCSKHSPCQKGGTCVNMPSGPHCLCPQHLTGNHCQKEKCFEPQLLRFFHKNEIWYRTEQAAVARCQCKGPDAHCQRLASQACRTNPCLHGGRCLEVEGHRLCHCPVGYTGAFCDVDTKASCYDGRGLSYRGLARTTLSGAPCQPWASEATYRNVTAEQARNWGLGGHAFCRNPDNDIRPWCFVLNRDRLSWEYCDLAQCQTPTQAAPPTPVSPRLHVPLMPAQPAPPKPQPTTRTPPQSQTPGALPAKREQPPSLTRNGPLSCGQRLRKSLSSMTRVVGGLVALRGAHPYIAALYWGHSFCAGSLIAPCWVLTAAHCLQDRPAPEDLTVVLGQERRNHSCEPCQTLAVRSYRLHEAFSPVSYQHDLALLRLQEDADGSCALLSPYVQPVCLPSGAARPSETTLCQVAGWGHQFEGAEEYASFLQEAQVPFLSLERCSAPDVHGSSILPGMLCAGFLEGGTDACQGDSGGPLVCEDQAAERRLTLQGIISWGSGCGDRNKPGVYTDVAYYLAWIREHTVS
Format: functional.

The target in assay [10] is T4, Polyadenylate-binding protein 1 (Homo sapiens, UniProt P11940). The assay is described as follows: PABP poly(A) RNA binding inhibitors, primary screen, biochemical, fluorescence polarization, uHTS (AID 2014).
For assay [11], the target named is DNA dC->dU-editing enzyme APOBEC-3G (Homo sapiens, UniProt Q9HC16). Format: functional.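 Also: Dose-response counterscreen measuring inhibition of APOBEC3G DNA deaminase activity, run while confirming APOBEC3A inhibitors.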
The target in assay [12] is T5, Eukaryotic translation initiation factor 4H (Homo sapiens, UniProt Q15056). As to the kind of experiment: eIF4H inhibition in translation initiation, SAR follow-up (AID 435011). Format: functional.
Assay [13] addresses T5, Eukaryotic translation initiation factor 4H. The assay is described as follows: human eIF4H binding inhibitors, primary screen, translation initiation inhibitor project, biochemical, uHTS, fluorescence polarization (AID 2012).
In assay [14] the target is T4, Polyadenylate-binding protein 1. As to the kind of experiment: PABP inhibition in translation initiation, SAR follow-up (AID 435018). The class given is functional.
The target of assay [15] is DNA dC->dU-editing enzyme APOBEC-3A (Homo sapiens, UniProt P31941). As to the kind of experiment: Dose Response confirmation of small molecule APOBEC3A DNA Deaminase Inhibitors via a fluorescence-based single-stranded DNA deaminase assay. [Related pubchem assays (depositor defined):AID493011, AID493024]. The class given is functional.
For assay [16], the target named is T6, Short transient receptor potential channel 4 (Mus musculus, UniProt Q9QUQ5).
T6 sequence (Q9QUQ5 whole entry): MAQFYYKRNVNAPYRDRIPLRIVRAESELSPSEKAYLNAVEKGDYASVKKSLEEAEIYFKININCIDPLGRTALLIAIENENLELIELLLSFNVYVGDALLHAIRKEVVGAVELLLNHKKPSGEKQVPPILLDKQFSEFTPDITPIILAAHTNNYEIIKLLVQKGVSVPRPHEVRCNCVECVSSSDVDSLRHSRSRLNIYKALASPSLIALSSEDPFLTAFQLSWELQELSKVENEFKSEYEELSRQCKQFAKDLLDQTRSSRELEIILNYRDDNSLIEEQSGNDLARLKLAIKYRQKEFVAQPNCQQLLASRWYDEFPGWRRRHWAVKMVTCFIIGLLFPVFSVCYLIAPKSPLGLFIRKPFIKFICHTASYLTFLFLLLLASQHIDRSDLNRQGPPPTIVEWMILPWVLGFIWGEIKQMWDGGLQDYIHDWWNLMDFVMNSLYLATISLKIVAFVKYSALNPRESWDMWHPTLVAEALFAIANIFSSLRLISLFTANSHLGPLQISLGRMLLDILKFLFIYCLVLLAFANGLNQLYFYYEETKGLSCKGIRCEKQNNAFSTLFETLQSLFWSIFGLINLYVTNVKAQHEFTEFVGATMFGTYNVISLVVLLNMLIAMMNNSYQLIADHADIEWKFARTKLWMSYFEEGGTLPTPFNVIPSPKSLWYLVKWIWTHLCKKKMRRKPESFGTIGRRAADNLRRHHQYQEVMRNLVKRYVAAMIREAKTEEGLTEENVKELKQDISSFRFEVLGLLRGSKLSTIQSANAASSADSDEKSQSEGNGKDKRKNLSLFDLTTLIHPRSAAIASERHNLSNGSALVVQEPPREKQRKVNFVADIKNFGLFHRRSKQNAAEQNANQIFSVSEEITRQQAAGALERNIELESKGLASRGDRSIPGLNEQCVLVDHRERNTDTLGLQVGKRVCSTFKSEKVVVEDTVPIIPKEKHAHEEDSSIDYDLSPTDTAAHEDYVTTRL
As to the kind of experiment: mouse TRPC4 channel activators, dose response, cell-based, HEK293 TRPC4/mu-opioid, Fluo-4 calcium (AID 434937). Format: functional.

In assay [17] the target is T7, Cytochrome P450 1A2 (Homo sapiens, UniProt P05177).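 Also: PubChem cytochrome P450 panel assay, CYP1A2 panel member.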
T7 sequence (P05177 whole entry): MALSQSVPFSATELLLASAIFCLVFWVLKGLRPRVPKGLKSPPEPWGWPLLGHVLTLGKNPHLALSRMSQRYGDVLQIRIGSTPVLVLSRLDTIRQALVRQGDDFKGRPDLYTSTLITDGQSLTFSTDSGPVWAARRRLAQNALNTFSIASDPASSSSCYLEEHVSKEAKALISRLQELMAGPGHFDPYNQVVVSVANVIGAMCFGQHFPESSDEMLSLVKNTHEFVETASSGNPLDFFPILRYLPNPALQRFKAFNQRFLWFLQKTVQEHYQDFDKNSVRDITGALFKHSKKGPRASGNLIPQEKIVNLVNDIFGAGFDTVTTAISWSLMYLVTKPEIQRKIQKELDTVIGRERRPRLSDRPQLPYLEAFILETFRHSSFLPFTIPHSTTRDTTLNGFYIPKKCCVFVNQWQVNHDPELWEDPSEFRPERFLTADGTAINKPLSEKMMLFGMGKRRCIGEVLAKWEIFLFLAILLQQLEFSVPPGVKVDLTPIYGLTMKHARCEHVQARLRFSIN

Assay [18] deals with Cytochrome P450 2D6 (Homo sapiens, UniProt P10635).
Assay [19] addresses Cytochrome P450 3A4 (Homo sapiens, UniProt P08684).
Assay [20] deals with T8, Fatty acid synthase (Homo sapiens, UniProt P49327). The assay is described as follows: FAS thioesterase domain inhibitors, dose response, biochemical, kinetic fluorescence intensity (AID 624326).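 Also: rate of fluorescence rise from hydrolysis of a fluorogenic O-methyl fluorescein ester substrate.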 The class given is functional.
In assay [21] the target is T8, Fatty acid synthase. As to the kind of experiment: FAS thioesterase domain inhibitors, dose response, biochemical, endpoint fluorescence intensity, uHTS hits (AID 624327).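 Also: fluorescence from hydrolysis of an O-methyl fluorescein acyl ester substrate by the enzyme.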 The class given is functional.

T8 sequence (P49327 whole entry, the tested form may be a part): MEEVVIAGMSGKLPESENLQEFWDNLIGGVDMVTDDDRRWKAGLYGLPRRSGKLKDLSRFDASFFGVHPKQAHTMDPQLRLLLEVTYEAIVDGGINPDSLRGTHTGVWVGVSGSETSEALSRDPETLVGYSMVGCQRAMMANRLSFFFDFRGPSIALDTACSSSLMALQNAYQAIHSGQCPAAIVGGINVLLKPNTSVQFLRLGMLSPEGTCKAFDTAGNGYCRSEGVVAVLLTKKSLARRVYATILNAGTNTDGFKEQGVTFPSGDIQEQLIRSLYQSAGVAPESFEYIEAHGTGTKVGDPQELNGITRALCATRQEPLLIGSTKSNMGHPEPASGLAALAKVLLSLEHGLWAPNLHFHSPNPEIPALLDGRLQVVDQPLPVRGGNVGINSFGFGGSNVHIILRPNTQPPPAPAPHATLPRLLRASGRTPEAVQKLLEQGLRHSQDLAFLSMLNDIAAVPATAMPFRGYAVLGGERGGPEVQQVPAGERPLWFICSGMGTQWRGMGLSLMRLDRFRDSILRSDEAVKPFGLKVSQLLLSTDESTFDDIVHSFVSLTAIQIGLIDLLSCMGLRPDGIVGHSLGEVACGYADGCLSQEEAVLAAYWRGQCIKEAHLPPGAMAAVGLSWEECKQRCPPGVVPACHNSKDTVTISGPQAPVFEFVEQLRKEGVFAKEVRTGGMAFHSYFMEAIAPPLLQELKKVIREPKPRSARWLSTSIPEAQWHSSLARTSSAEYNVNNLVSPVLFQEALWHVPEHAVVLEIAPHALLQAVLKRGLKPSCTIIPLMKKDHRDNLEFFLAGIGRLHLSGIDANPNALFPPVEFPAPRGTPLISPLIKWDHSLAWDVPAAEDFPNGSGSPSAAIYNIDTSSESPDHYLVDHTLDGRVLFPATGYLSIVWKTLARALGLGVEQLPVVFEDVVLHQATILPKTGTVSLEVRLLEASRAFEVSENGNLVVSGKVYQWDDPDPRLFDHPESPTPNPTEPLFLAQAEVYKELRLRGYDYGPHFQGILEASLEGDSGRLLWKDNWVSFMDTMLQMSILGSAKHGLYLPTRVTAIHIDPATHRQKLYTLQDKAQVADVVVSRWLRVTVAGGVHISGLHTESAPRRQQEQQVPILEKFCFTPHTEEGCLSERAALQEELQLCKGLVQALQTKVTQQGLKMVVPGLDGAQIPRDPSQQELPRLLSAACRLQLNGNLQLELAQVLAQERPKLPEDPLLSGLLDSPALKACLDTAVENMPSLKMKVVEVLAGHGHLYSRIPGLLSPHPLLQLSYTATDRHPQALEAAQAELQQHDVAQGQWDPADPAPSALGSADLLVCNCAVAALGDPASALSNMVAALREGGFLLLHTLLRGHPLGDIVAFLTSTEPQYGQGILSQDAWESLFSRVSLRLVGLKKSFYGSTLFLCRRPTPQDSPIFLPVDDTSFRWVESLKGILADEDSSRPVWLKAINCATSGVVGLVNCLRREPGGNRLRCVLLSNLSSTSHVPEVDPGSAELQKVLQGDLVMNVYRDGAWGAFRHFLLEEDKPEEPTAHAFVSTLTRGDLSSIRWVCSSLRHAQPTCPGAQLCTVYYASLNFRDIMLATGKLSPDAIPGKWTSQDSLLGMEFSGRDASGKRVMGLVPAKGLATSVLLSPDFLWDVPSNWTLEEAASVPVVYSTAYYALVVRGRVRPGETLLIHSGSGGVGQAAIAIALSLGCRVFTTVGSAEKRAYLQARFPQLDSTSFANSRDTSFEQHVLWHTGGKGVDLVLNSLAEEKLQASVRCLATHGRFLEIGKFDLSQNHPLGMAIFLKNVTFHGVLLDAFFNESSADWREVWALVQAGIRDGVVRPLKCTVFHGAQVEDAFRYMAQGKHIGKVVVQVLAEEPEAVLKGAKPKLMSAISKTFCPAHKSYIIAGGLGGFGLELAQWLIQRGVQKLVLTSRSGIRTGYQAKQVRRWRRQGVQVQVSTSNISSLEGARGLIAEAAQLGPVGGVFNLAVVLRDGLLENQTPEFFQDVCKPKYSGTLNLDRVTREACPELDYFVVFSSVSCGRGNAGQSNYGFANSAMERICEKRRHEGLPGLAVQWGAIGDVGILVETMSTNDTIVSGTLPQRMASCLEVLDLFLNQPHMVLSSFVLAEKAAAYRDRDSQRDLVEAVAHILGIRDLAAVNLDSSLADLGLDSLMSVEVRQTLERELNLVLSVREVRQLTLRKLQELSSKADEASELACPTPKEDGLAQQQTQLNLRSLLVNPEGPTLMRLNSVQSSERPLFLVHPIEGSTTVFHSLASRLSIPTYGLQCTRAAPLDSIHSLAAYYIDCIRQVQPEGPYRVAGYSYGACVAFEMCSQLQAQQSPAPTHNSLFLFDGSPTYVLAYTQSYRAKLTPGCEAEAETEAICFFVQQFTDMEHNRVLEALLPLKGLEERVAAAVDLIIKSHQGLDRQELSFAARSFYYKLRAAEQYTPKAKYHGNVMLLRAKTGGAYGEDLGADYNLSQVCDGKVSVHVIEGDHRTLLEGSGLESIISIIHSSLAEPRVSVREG
T4 sequence (P11940 whole entry): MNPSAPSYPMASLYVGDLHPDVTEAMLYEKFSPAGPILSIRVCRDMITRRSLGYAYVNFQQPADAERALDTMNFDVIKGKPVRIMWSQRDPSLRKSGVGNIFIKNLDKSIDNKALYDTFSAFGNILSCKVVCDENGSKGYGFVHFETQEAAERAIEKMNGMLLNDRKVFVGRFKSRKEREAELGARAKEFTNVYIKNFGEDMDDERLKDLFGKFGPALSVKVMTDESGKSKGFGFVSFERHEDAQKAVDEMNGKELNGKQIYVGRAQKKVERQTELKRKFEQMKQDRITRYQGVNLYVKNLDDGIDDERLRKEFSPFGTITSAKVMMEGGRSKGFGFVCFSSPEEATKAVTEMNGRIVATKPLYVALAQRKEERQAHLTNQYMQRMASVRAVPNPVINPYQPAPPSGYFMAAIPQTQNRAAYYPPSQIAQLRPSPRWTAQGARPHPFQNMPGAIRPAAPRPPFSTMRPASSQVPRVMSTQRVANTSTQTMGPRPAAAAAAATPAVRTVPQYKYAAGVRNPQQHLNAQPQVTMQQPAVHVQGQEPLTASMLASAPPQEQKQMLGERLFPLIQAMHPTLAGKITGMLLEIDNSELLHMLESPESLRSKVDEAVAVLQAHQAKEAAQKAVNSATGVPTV
Hexokinase-1, sequence (P19367 whole entry, the tested form may be a part): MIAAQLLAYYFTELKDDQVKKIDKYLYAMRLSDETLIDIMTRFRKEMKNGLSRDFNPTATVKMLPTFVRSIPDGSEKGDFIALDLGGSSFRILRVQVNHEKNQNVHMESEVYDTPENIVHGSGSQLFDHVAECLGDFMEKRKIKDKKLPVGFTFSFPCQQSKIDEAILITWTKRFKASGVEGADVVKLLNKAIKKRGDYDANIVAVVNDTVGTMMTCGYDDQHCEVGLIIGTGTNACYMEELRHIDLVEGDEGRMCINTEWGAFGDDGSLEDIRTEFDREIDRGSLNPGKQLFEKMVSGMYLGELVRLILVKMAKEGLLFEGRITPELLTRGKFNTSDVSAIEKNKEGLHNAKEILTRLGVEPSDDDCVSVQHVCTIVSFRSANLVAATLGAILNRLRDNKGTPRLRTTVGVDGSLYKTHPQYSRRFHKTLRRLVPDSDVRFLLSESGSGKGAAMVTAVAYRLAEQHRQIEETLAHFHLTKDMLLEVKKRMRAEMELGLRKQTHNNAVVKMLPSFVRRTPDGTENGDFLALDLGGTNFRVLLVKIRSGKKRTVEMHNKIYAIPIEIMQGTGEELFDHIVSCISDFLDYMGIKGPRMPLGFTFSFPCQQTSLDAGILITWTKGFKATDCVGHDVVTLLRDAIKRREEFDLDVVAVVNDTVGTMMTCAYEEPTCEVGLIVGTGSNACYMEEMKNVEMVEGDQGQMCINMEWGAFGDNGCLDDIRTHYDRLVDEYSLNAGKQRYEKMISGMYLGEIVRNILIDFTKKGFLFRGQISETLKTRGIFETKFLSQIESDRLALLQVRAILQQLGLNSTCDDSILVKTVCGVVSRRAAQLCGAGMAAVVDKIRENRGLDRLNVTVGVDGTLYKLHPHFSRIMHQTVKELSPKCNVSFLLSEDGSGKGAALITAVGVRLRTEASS
DNA dC->dU-editing enzyme APOBEC-3G, sequence (Q9HC16 whole entry): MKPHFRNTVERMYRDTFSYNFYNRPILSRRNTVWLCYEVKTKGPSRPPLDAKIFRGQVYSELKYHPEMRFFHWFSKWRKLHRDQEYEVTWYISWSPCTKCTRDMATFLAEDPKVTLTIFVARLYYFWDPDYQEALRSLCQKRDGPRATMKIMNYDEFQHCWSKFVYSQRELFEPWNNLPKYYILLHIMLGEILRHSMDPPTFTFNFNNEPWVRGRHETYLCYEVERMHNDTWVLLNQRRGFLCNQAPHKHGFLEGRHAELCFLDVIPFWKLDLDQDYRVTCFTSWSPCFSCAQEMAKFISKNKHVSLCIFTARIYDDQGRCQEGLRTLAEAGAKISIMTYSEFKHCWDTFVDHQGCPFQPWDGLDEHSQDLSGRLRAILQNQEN
G-protein coupled receptor 55, sequence (Q9Y2T6 whole entry): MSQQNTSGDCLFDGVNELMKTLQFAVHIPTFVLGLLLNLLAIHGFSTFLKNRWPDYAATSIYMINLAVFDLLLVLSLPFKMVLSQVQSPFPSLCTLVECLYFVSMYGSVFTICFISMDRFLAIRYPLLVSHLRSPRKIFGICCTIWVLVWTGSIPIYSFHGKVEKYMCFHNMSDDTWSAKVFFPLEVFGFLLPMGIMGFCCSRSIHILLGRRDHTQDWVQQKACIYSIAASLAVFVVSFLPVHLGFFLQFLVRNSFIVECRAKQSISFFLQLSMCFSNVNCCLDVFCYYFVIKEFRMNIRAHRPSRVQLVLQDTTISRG

For orientation: IC50 means the concentration that gives 50% inhibition. As for `COc1ccc(S(=O)(=O)N2CCN(C(=O)c3ccc(O)nn3)CC2)cc1OC`, the IC50 in assay [1] and in assay [2] was > 67.5 µM (inactive) throughout.
With `Cc1cc(Cl)ccc1NC(=S)N(CCCN1CCOCC1)Cc1cccs1`, the IC50 in assay [3] is 6.24 µM (active).
The term AC50 denotes the concentration giving half of the maximal activity seen. With `C[C@]12CC[C@@H](O)CC1CC[C@@H]1[C@@H]2CC[C@]2(C)C(=O)CC[C@@H]12` (some centres undefined), in [4], the AC50 is 25.1 µM (inconclusive).
`N#Cc1ccc(CSc2nnc(NC(=O)c3ccco3)s2)cc1`: the IC50 in [5] and in assay [6] was > 80 µM (inactive) in each case.
For orientation: EC50 means the concentration giving half of the maximal effect. Consider `CCC(c1nnnn1Cc1ccccc1)N(Cc1cc2cc(OC)ccc2[nH]c1=O)CC1CCCO1` (centres undefined), for which, in assay [7], the EC50 is > 100 µM (inactive).
As to `Cc1nc(C(=O)Nc2ccccc2)sc1C(=O)Nc1ccccc1`, the AC50 in [8] was 58.6 µM (active).
For `Cc1cccc(/C=C\c2nc3ccccc3c(=O)n2Cc2ccccc2)c1`, the IC50 in assay [5] and in assay [6] was > 80 µM (inactive) in each case.
As for `CN(C)S(=O)(=O)Oc1ccsc1C(=O)Nc1ccc(Cl)c(Cl)c1`, the IC50 in assay [9] is > 50 µM (inactive).
With `CC(C)NC(=O)C(C)N1CCN(S(=O)(=O)c2ccc3ccccc3c2)CC1` (centres undefined), the half-inhibitory concentration (IC50) in assay [10] is 5.92 µM (active); in assay [11], 3.72 µM (active); in assay [12], 27.6 µM (active); in assay [13], 88.9 µM (active); in assay [14], 20.5 µM (active); in assay [15], 3.38 µM (active).
Consider `CN1CCN(CCNC(=O)c2cn(Cc3ccccc3F)nn2)CC1`, for which the IC50 in assay [9] was > 50 µM (inactive).
Consider `CC1CCCCN1S(=O)(=O)c1ccc(C(=O)N(CCCN(C)C)c2nc3ccc(Br)cc3s2)cc1` (centres undefined), for which the EC50 in assay [7] is > 100 µM (inactive); in assay [16], 4.73 µM (active).
With `Cc1ccc2nc(N3CCOCC3)c(C=O)cc2c1`, the IC50 in [1] and in assay [2] was > 67.5 µM (inactive) in each case.
On to `COc1cccc(C(=O)NCCN2CCN(c3ccc(Cl)cc3)CC2)c1`, for which the AC50 was 12.6 µM (inconclusive) in assay [17], 1 µM (inconclusive) in assay [4], 31.6 µM (inconclusive) in assay [18] and 15.8 µM (inconclusive) in assay [19].
In the case of `O=S(=O)(c1ccccc1)n1ccc(-c2cnc(-c3ccccc3)s2)n1`, the IC50 is 6.85 µM (active) in assay [20] and 7.41 µM (active) in assay [21]. Moreover, the AC50 in [8] is 101 µM (active).
